Measured values reported in patent US20120184590A1, “FORMULATIONS OF INDOLE-3-CARBINOL DERIVED ANTITUMOR AGENTS WITH INCREASED ORAL BIOAVAILABILITY” (UNIVERSITY OF KANSAS, priority 2009, published 2012).
Entries after “also recorded” stand apart in the source; their conditions may differ. Marks after values point to notes of the source that are not given here.

Columns and labels:
[1] = Clinical observations and clinical pathology (liver enzymes) in monkeys; format: in vivo, cynomolgus monkeys (macaca fasicularis); settings: for ALT / AST / LDH: fed
Description: For both species, each animal was part of each experimental group, with a 7-day interval between treatments to allow for washout of the dosing formulation and its effects. Dosing formulations of SR13668 were administered by oral gavage (intragastric) or intravenous (i.v.) injection as a single dose or once daily for seven consecutive days. Oral to doses were administered at a dosing volume of 5 mL/kg of body weight, while intravenous doses were administered at a dosing volume of 0.5 mL/kg of body weight. Dogs were dosed with 93.6 mg/m^2 SR13668 intravenously in DMSO:PEG300 15:85 (v/v) or orally in Solutol® vehicle (two groups, fed and after an overnight fast). Monkeys were dosed with 84.2 mg/m^2 SR13668 intravenously in DMSO:PEG300 15:85 (v/v) or orally (336.7 mg/m^2 SR13668 for the oral high dose group) in PEG400:Labrasol® 1:1 (v/v) or Solutol® vehicles. Vehicle control groups were used to assess the tolerability of the vehicle and for clinical pathology evaluations.
At the end of each dosing period, the animals were examined for detailed clinical signs and symptoms (i.e., alterations of teeth, nose, eyes, perineum, pelage and body orifices; changes in appearance or behavior) and/or presence of any tissue masses. Body weights were recorded prior to treatment and daily during each testing interval. Quantitative (grams/day) food consumption data were recorded for dogs on a daily basis during each testing interval. Qualitative food consumption observations were recorded for monkeys on a daily basis during each testing interval. Blood samples for clinical pathology (clinical chemistry, hematology, and coagulation) parameter evaluation were collected from dogs and monkeys prior to dosing and on Days 2 and 8 post-dose, as well as from monkeys on Days 15 and 30 post-dose.

[2] = Stability of SR13668 in Solutol (25° C. and 4° C.), HPLC/Fluorescence; format: physicochemical; settings: for stability: 25° C. and 4° C.; for SR13668 assay, stability of SR13668/Solutol aqueous solution: aqueous sample (theoretical 1.2000); for SR13668 assay, stability in Solutol: solid sample in Eppendorf tube
Description: A batch of 5 mg SR13668/g Solutol was made by stirring at 95° C. for 24 hrs. […] The sample was centrifuged while warm and no crystals were observed on the bottom of the tube. The sample was assayed from the top, middle and bottom of the centrifuge tube and there was no significant difference in the measurements. The SR13668 assay is an isocratic HPLC method with Fluorescence detection. The SR13668 concentration in Solutol was determined to be 5.00±0.09 mg/g (n=5).
Three types of samples from the above formulation (a. Solid Samples, b. Aqueous Solution and c. Solid stored and combined with water before assay) were stored at 25° C. (constant temperature bath) and 4° C. (refrigerator) and assayed weekly with the same HPLC/Fluorescence analytical method for 1-month.
Eppendorf tubes containing 1-mL samples of the above 5 mg SR13668/g Solutol solution were capped and stored under the two temperature conditions described above. At each time point the samples were melted and centrifuged at 95° C. No solids were ever observed in these samples.
In a 50-mL centrifuge tube, 12 g of the 5 mg SR13668/g Solutol melt was accurately weighed. The tube was tared and water, warmed to 70° C., was added to the 50 mL mark on the tube and weighed. The concentration of SR13668 in the aqueous solution was calculated based on the average SR13668/Solutol concentration of 5.00±0.09 mg/g, the weight of the Solutol and the total weight of solution in the tube. The tube was stored under the two temperature conditions described previously and the assayed amounts were compared with the theoretical. Observations were made on the tubes and there were no significant changes in the solutions and no solids were observed. The 25° C. tube did get a cloudy film layer, possibly biological growth. The layer dispersed after vigorous shaking. The 4° C. samples are cloudy, but clear up when warmed to room temperature. See results Table 8 and FIG. 5.
An accurately weighed 200 mg aliquot of the above 5 mg/g Solutol solution was stored at 25° C. and 4° C. At each time point, the solids were melted at 90° C. and 800 mg of accurately weighed 90° C. water was added. The samples were mixed and observations made. In all cases no solids were observed. A sample aliquot of the above aqueous solution was analyzed by HPLC/Fluorescence and the results compared with theoretical. See results Table 9 and FIG. 6. The analytical method is validated ±5% from theoretical. The majority of the samples fell within this limit.

[3] = Day 2 (n = 2), 84.2 mg/m^2 (7.02 mg/kg) oral gavage daily days 1 through 7, PEG400:Labrasol 1:1 v/v
[4] = Day 8, 84.2 mg/m^2 (7.02 mg/kg) oral gavage daily days 1 through 7, PEG400:Labrasol 1:1 v/v
[5] = Day 15 (after discontinuation), 84.2 mg/m^2 (7.02 mg/kg) oral gavage daily days 1 through 7, PEG400:Labrasol 1:1 v/v
[6] = Day 30 (after discontinuation), 84.2 mg/m^2 (7.02 mg/kg) oral gavage daily days 1 through 7, PEG400:Labrasol 1:1 v/v
[7] = day 2 following a single dose, 84.2 mg/m^2 (7.02 mg/kg) iv, DMSO:PEG300 15:85 v/v
[8] = day 2 following a single dose, 84.2 mg/m^2 (7.02 mg/kg) oral gavage, Solutol
[9] = day 2 following a single dose, 336.7 mg/m^2 (28.06 mg/kg) oral gavage, PEG400:Labrasol 1:1 v/v
[10] = day 2 following a single dose, n = 4, 84.2 mg/m^2 (7.02 mg/kg) oral gavage, PEG400:Labrasol 1:1 v/v
[11] = stored as solid, prepared as aqueous solution, 4° C. storage, 0
[12] = stored as solid, prepared as aqueous solution, 4° C. storage, Day
[13] = stored as solid, prepared as aqueous solution, 4° C. storage, Day 7
[14] = stored as solid, prepared as aqueous solution, 4° C. storage, Day 14
[15] = stored as solid, prepared as aqueous solution, 4° C. storage, Day 21
[16] = stored as solid, prepared as aqueous solution, 4° C. storage, Day 28
[17] = stored as solid, prepared as aqueous solution, 25° C. storage, 0
[18] = stored as solid, prepared as aqueous solution, 25° C. storage, Day
[19] = stored as solid, prepared as aqueous solution, 25° C. storage, Day 7
[20] = stored as solid, prepared as aqueous solution, 25° C. storage, Day 14
[21] = stored as solid, prepared as aqueous solution, 25° C. storage, Day 21
[22] = stored as solid, prepared as aqueous solution, 25° C. storage, Day 28

CCOC(=O)c1ccc2[nH]c3c(OC)c4[nH]c5ccc(C(=O)OCC)cc5c4cc3c2c1 [SR13668, 2,10-dicarbethoxy-6-methoxy-5,7-dihydro-indolo-(2,3-b)carbazole]
adverse treatment-related clinical observations [1]: soft stools and diarrhea in orally but not i.v. dosed monkeys | effects on body weights, body weight gains or food consumption [1]: No significant treatment-related effects on body weights, body weight gains or food consumption | effects on clinical pathology (clinical chemistry, hematology, coagulation) [1]: modest, reversible increase in liver function enzymes; also recorded: modest increases in liver enzymes | mortality or morbidity [1]: no mortalities or morbidity | ALT [1, 3]: 112 ± 52 IU/L | AST [1, 3]: 234 ± 115 IU/L | LDH [1, 3]: 1022 ± 401 IU/L | ALT [1, 4]: 100 ± 38 ^a IU/L | AST [1, 4]: 178 ± 86 ^b IU/L | LDH [1, 4]: 1035 ± 596 IU/L | ALT [1, 5]: 41.3 ± 10 IU/L | AST [1, 5]: 24.0 ± 2.9 IU/L | LDH [1, 5]: 184 ± 39 IU/L | ALT [1, 6]: 33.3 ± 2.2 IU/L | AST [1, 6]: 22.5 ± 4.3 IU/L | LDH [1, 6]: 168 ± 39 IU/L | reversibility of liver enzyme increases ([1]; LDH, ALT, AST): reversible on discontinuation of dosing | ALT [1, 7]: 88.5 ± 37 IU/L | AST [1, 7]: 134 ± 41 ^b IU/L | LDH [1, 7]: 730 ± 210 ^c IU/L | ALT [1, 8]: 95.5 ± 33 IU/L | AST [1, 8]: 150 ± 40 ^b IU/L | LDH [1, 8]: 779 ± 403 IU/L | ALT [1, 9]: 108 ± 28 ^a IU/L | AST [1, 9]: 188 ± 34 ^b IU/L | LDH [1, 9]: 753 ± 242 ^c IU/L | ALT [1, 10]: 86.0 ± 24 IU/L | AST [1, 10]: 138 ± 75 IU/L | LDH [1, 10]: 795 ± 455 IU/L | stability ([2]; 5 mg SR13668/g Solutol, solid samples): stable within the error of the assay and no degradation was observed | stability ([2]; SR13668/Solutol aqueous solution): stable within error and no drug degradation was observed | SR13668 assay, stability of SR13668/Solutol aqueous solution ([2]; 4° C. storage, Day): 1.1384 mg SR13668/g Solutol | SR13668 assay, stability of SR13668/Solutol aqueous solution ([2]; 4° C. storage, Day 7): 1.1758 mg SR13668/g Solutol | SR13668 assay, stability of SR13668/Solutol aqueous solution ([2]; 4° C. storage, Day 14): 1.1981 mg SR13668/g Solutol | SR13668 assay, stability of SR13668/Solutol aqueous solution ([2]; 4° C. storage, Day 21): 1.2509 mg SR13668/g Solutol | SR13668 assay, stability of SR13668/Solutol aqueous solution ([2]; 4° C. storage, Day 28): 1.1985 mg SR13668/g Solutol | SR13668 assay, stability of SR13668/Solutol aqueous solution ([2]; 4° C. storage, Day 35): 1.1814 mg SR13668/g Solutol | SR13668 assay, stability of SR13668/Solutol aqueous solution ([2]; 25° C. storage, Day): 1.5040 mg SR13668/g Solutol | SR13668 assay, stability of SR13668/Solutol aqueous solution ([2]; 25° C. storage, Day 7): 1.1311 mg SR13668/g Solutol | SR13668 assay, stability of SR13668/Solutol aqueous solution ([2]; 25° C. storage, Day 14): 1.2256 mg SR13668/g Solutol | SR13668 assay, stability of SR13668/Solutol aqueous solution ([2]; 25° C. storage, Day 21): 1.2663 mg SR13668/g Solutol | SR13668 assay, stability of SR13668/Solutol aqueous solution ([2]; 25° C. storage, Day 28): 1.2116 mg SR13668/g Solutol | SR13668 assay, stability of SR13668/Solutol aqueous solution ([2]; 25° C. storage, Day 35): 1.1942 mg SR13668/g Solutol | SR13668 assay, stability in Solutol ([2]; 4° C. storage, 0 (t = 0 melt samples)): 5.00 mg SR13668/g Solutol | SR13668 assay, stability in Solutol ([2]; 4° C. storage, Day): 5.05 mg SR13668/g Solutol | SR13668 assay, stability in Solutol ([2]; 4° C. storage, Day 7): 4.97 mg SR13668/g Solutol | SR13668 assay, stability in Solutol ([2]; 4° C. storage, Day 14): 5.33 mg SR13668/g Solutol | SR13668 assay, stability in Solutol ([2]; 4° C. storage, Day 21): 5.06 mg SR13668/g Solutol | SR13668 assay, stability in Solutol ([2]; 4° C. storage, Day 28): 4.97 mg SR13668/g Solutol | SR13668 assay, stability in Solutol ([2]; 4° C. storage, Day 35): 4.87 mg SR13668/g Solutol | SR13668 assay, stability in Solutol ([2]; 25° C. storage, 0 (t = 0 melt samples)): 5.00 mg SR13668/g Solutol | SR13668 assay, stability in Solutol ([2]; 25° C. storage, Day): 4.93 mg SR13668/g Solutol | SR13668 assay, stability in Solutol ([2]; 25° C. storage, Day 7): 5.10 mg SR13668/g Solutol | SR13668 assay, stability in Solutol ([2]; 25° C. storage, Day 14): 5.19 mg SR13668/g Solutol | SR13668 assay, stability in Solutol ([2]; 25° C. storage, Day 21): 5.14 mg SR13668/g Solutol | SR13668 assay, stability in Solutol ([2]; 25° C. storage, Day 28): 5.00 mg SR13668/g Solutol | SR13668 assay, stability in Solutol ([2]; 25° C. storage, Day 35): 4.93 mg SR13668/g Solutol | stability ([2]; stored as solid, prepared as aqueous solution): no trends or indications that the samples are unstable | % difference from Theory [2, 11]: −6.71% | Measured mg SR13668/g Solutol [2, 11]: 0.9238 mg SR13668/g Solutol | % difference from Theory [2, 12]: −7.00% | Measured mg SR13668/g Solutol [2, 12]: 0.8804 mg SR13668/g Solutol | % difference from Theory [2, 13]: 0.78% | Measured mg SR13668/g Solutol [2, 13]: 0.9866 mg SR13668/g Solutol | % difference from Theory [2, 14]: 2.91% | Measured mg SR13668/g Solutol [2, 14]: 1.0608 mg SR13668/g Solutol | % difference from Theory [2, 15]: −2.29% | Measured mg SR13668/g Solutol [2, 15]: 0.9809 mg SR13668/g Solutol | % difference from Theory [2, 16]: −4.87% | Measured mg SR13668/g Solutol [2, 16]: 0.9160 mg SR13668/g Solutol | % difference from Theory [2, 17]: −11.50% | Measured mg SR13668/g Solutol [2, 17]: 0.8630 mg SR13668/g Solutol | % difference from Theory [2, 18]: −6.56% | Measured mg SR13668/g Solutol [2, 18]: 0.9955 mg SR13668/g Solutol | % difference from Theory [2, 19]: 3.38% | Measured mg SR13668/g Solutol [2, 19]: 1.0308 mg SR13668/g Solutol | % difference from Theory [2, 20]: 3.40% | Measured mg SR13668/g Solutol [2, 20]: 0.9609 mg SR13668/g Solutol | % difference from Theory [2, 21]: −5.45% | Measured mg SR13668/g Solutol [2, 21]: 0.9374 mg SR13668/g Solutol | % difference from Theory [2, 22]: −4.84% | Measured mg SR13668/g Solutol [2, 22]: 0.9372 mg SR13668/g Solutol
